Reference: patent US11786466B2, “Topical formulations for treating dermatological disorders including male pattern baldness” (XYON HEALTH INC., priority 2017, dated 2023)

How the values were obtained:
[1] = test system: dihydrotestosterone (DHT); conditions: cited from earlier work
[2] = test system: 5-α-reductase; conditions: cited from earlier work
[3] = In vitro skin permeation, modified Franz-type diffusion cell; format: in vitro ADME; conditions: human epidermis, receiver compartment, n = 5
Protocol: An original Franz-type diffusion cell system was modified to accommodate widened vertical columns and removal of the bowl shape. The diffusion area was 0.636 cm^2 with a receiver capacity of approximately 3.0 mL. The receiver volume for each cell was individually calibrated.
Human epidermis samples were prepared according to standard protocols. […] The samples were used as a membrane between the two chambers in the Franz cells. After about 6-8 hours, fat cells were carefully removed from the full thickness skin. The skin sections were cut into 2.5×2.5 cm squares, sealed in aluminum foil and frozen at −20° C. Prior to preparation, the samples were thawed to room temperature, immersed in 60° C. water, and the epidermis was gently separated from the remaining tissue with forceps and allowed to dry.
Before being mounted on the Franz cell, each epidermal sheet was visually inspected to avoid any possible defects. Additionally, the electrical resistance of isolated epidermis was measured to ensure the integrity of the barrier membrane. Epidermis samples with a resistance above 18 kΩ/cm^3 were used for experiments.
The upper and lower parts of the Franz cell were sealed with paraffin film and fastened together by a clamp. […]
Dutasteride concentration was determined using LC/MS-MS according to the following parameters: […]

[4] = after sustained oral administration

SMILES	Reduction of serum DHT levels [1, 4]	Typical reduction in DHT serum concentration ([1]; oral finasteride therapy, comparison value)	Inhibition of Type I 5-α-reductase [2]	Inhibition of Type II and Type III 5-α-reductase [2]	Suppression of DHT production [1, 4]	Inhibition of the three 5-α-reductase isoforms [2]	Permeated Amount After 24 hours (dutasteride) [3]
CC(C)(C)NC(=O)[C@H]1CC[C@H]2[C@@H]3CC[C@H]4NC(=O)C=C[C@]4(C)[C@H]3CC[C@]12C [Finasteride]	65-70%	60-70%	does not inhibit	selectively inhibits			
C[C@]12C=CC(=O)N[C@@H]1CC[C@@H]1[C@@H]2CC[C@]2(C)[C@@H](C(=O)Nc3cc(C(F)(F)F)ccc3C(F)(F)F)CC[C@@H]12 [Dutasteride]					up to 99%	inhibits all three 5-α-reductase isoforms	never detected
